Test results from PMC10385850, “Modified Hederagenin Derivatives Demonstrate Ex Vivo Anthelmintic Activity against Fasciola hepatica” (Pharmaceutics, 2023).

What was measured:
[1] = system: immature F. hepatica flukes (Italian strain); assay: Ex vivo motility assay on immature liver flukes (Italian strain), single concentration and dose response; assay type: cell-based, Fasciola hepatica; conditions: 40 µM; for Average motility of 4 parasites with 95% CI at 24 hour time point / Average motility of 4 parasites with 95% CI at 48 hour time point / Average motility of 4 parasites with 95% CI at 72 hour time point: immature flukes; for Average motility of 4 parasites with 95% CI at 24 hour time point: score 1 normal to 5 no movement or death; for Average motility of 4 parasites with 95% CI at 48 hour time point / Average motility of 4 parasites with 95% CI at 72 hour time point: score 1 to 5; for Effect on immature fluke motility, in words: by 72 h
Description: The six selected compounds (at 40 µM in 0.4% DMSO) were evaluated on immature flukes (n = 4/condition) at 24, 48 and 72 h (Table S4). The protocol for culturing and scoring (motility) of these life stages have been previously described. Due to restricted numbers of immature worms, a dose response assay was conducted only for MC042. Here, immature worms (n = 2/concentration tested) were screened against descending concentrations of MC042 (40 µM, 13.3 µM and 4.4 µM); motility scores were recorded at 24, 48 and 72 h (Table S5). The scoring pattern used is identical to that described for NEJs.

[2] = MTT cell viability assay on MDBK cells; assay type: cell-based, bovine; conditions: bovine, MDBK cells (Madin–Darby bovine kidney); MDBK cells, MTT, 24 h exposure; read-out: CC50 with 95% CI on MDBK cells (cytotoxicity)
Description: MTT cell viability assays were performed on Madin–Darby bovine kidney (MDBK cells) for the five selected hederagenin derivatives (MC014, MC035, MC042, MC055 and MC062) using final concentrations of 100 μM, 75 μM, 50 μM, 25 μM, 10 μM, 5 μM and 1 μM (in 1% DMSO). Negative (1% v/v Triton X-100, Sigma-Aldrich, UK) and positive (1% v/v DMSO or media only) controls were included. The protocol was followed as previously described. Absolute EC50 values were calculated from the corrected absorbance of replicates by non-linear regression, after log transformation of concentrations and data normalization (where DMSO values represents 0% inhibition and TX-100 values represent 100% inhibition) using GrapPad Prism 8.

[3] = system: wild strain adult F. hepatica; assay: Ex vivo motility assay on adult liver flukes (wild strain); assay type: cell-based, Fasciola hepatica; conditions: 40 µM; for Effect on wild strain adult fluke motility, in words: 72 h; for Average motility of 4 parasites with 95% CI at 72 hour time point: wild strain adult flukes, score 1 good/normal to 6 no movement or dead
Description: Due to the high number of active molecules and a shortage of Italian strain adult liver flukes, the eleven hit compounds were screened for 72 h at 40 µM (in 0.4% DMSO) on wild strain adult F. hepatica (n = 4/condition) of unknown provenance (Table S3). The protocol for culturing and scoring (motility) the activity of these compounds was previously described (1—good/normal; 2—moderate; 3—resting (less than 10 s pulses of body and head), 4—apathetic (less than 2 s pulses of body and head), 5—paralysis and 6–no movement or dead worms). Six compounds were deemed active in these assays and were selected for further screening.

[4] = system: F. hepatica newly excysted juveniles (NEJs), Italian strain; assay: Ex vivo screen against newly excysted juveniles (NEJs), phenotype and motility scoring; assay type: cell-based, Fasciola hepatica; conditions: 10 µM; for Average phenotype of 25 NEJs with 95% CI, 24 hours / Average phenotype of 25 NEJs with 95% CI, 48 hours / Average phenotype of 25 NEJs with 95% CI, 72 hours: ultrastructure score 1 normal to 6 dead or dissolved; for Activity against NEJs (first screen), in words: 72 h co-culture
Summary of the method: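 Newly excysted juveniles of the Italian strain of F. hepatica were obtained by excysting metacercariae and exposed ex vivo to test compounds at 10 μM final concentration in 0.1% DMSO. Controls were 0.1% DMSO (negative) and 10 μM TCBZ in 0.1% DMSO (positive). Motility was scored from 1 (good/normal) to 5 (no movement), and ultrastructural phenotype changes were scored with an established matrix.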

[5] = system: adult F. hepatica flukes (Italian strain); assay: Ex vivo dose response motility assay on adult liver flukes (Italian strain); assay type: cell-based, Fasciola hepatica; conditions: for Selectivity Index (SI) on Adult Flukes SI=CC50/EC50, 72 hour: CC50 in MDBK cells (24 h) / EC50 adult flukes 72 h; for EC50: Fasciola hepatica, adult flukes, motility, read-out: EC50 with 95% CI on Adult Flukes (motility), 72 hour; for Effect on adult fluke (Italian strain) movement, in words: dose response, MC042 statement at 40 μM after 72 h
Description: The collection, ex vivo culturing and screening of adult liver fluke (Italian strain; n = 3/condition) was previously described. Dose response assays (40 µM, 13.3 µM and 4.4 µM) were conducted for MC014, MC042, MC035, MC055 and MC062 with motility scores recorded at 24, 48 and 72 h (Table S6).

[6] = 4.4 µM, adult flukes Italian strain, score 1 to 6
[7] = adult flukes Italian strain, score 1 to 6
[8] = 72 h, adult flukes Italian strain, score 1 to 6

Question: For `CN1CCN(C(=O)N[C@]23CCC(C)(C)CC2C2=CCC4[C@@]5(C)CC[C@@H]6OC(C)(C)OC[C@@]6(C)C5CC[C@@]4(C)[C@]2(C)CC3)CC1` (stereo partly drawn) [MC062, 4-Methyl-N-((4aR,6aR,6bS,8aS,14bR,16aS)-2,2,4a,6a,6b,11,11,14b-octamethyl-4a,5,6,6a, 6b,7,8,9,10,11, 12,12a,14,14a,14b,15,16,16a-octadecahydro-4H-piceno[3,4-d][1,3]dioxin-8a(4bH)-yl)piperazine-1-carboxamide], which “Average motility of 4 parasites with 95% CI at 24 hour time point” value [1] is on record?
Answer: The value was 5.00 (5.0;5.0).

Question: What about the “Average motility of 4 parasites with 95% CI at 48 hour time point” value [1] of the same molecule?
Answer: Its value is 5.00 (5.0;5.0).

Question: And the “Average motility of 4 parasites with 95% CI at 72 hour time point” value [1]?
Answer: Its value is 5.00 (5.0;5.0).

Question: What about the “Effect on immature fluke motility, in words” value [1] of the same molecule?
Answer: Its value is “paralyzed the assayed immature flukes”.

Question: And the CC50 at 24 h [2]?
Answer: Its CC50 at 24 h is 13.7 µM.

Question: What about the “Effect on wild strain adult fluke motility, in words” value [3] of the same molecule?
Answer: Its value is “partial paralysis”.

Question: What about the “Average motility of 4 parasites with 95% CI at 72 hour time point” value [3] of the same molecule?
Answer: Its value is 5.00 (5.0;5.0).

Question: And the “Average phenotype of 25 NEJs with 95% CI, 24 hours” value ([4]; 24 h)?
Answer: Its value is 6.00 (6.0;6.0).

Question: What about the “Average phenotype of 25 NEJs with 95% CI, 48 hours” value ([4]; 48 h) of the same molecule?
Answer: Its value is 6.00 (6.0;6.0).

Question: And the “Average phenotype of 25 NEJs with 95% CI, 72 hours” value ([4]; 72 h)?
Answer: Its value is 6.00 (6.0;6.0).

Question: And the “Activity against NEJs (first screen), in words” value [4]?
Answer: The value was “maximal alterations to both phenotype/ultrastructure and motility”.

Question: What about the “Average motility of 3 parasites treated with 4.4 µM, 24 hours” value [5, 6] of the same molecule?
Answer: The value was 1.00 (1.0; 1.0).

Question: And the “Average motility of 3 parasites treated with 4.4 µM, 48 hours” value [5, 6]?
Answer: The value was 1.00 (1.0; 1.0).

Question: What about the “Average motility of 3 parasites treated with 13.3 µM, 24 hours” value [5, 7] of the same molecule?
Answer: The value was 1.00 (1.0; 1.0).

Question: And the “Average motility of 3 parasites treated with 13.3 µM, 48 hours” value [5, 7]?
Answer: The value was 1.66 (1.0; 2.3).

Question: What about the “Average motility of 3 parasites treated with 13.3 µM, 72 hours” value [5, 8] of the same molecule?
Answer: The value was 5.00 (5.0; 5.0).

Question: And the “Average motility of 3 parasites treated with 40 µM, 24 hours” value [5, 7]?
Answer: Its value is 3.00 (3.0;3.0).

Question: What about the “Average motility of 3 parasites treated with 40 µM, 48 hours” value [5, 7] of the same molecule?
Answer: The value was 4.00 (4.0;4.0).

Question: And the “Average motility of 3 parasites treated with 40 µM, 72 hours” value [5, 8]?
Answer: The value was 5.00 (5.0;5.0).

Question: What about the “Selectivity Index (SI) on Adult Flukes SI=CC50/EC50, 72 hour” value [5] of the same molecule?
Answer: Its value is 2.43.

Question: And the EC50 ([5]; 72 h)?
Answer: Its EC50 is 5.61 µM.

Question: And the “Effect on adult fluke (Italian strain) movement, in words” value [5]?
Answer: Its value is “Decreased movement”.

Question: Which results are given for `CC1(C)CC[C@]2(NC(=O)N3CCCC3)CC[C@]3(C)C(=CCC4[C@@]5(C)CC[C@H](O)[C@@](C)(CO)C5CC[C@]43C)C2C1` (stereo partly drawn) [MC055, N-((4aS,6aS,6bR,9R,10S,12aR)-10-Hydroxy-9-(hydroxymethyl)-2,2,6a,6b,9,12a-hexamethyl-1,3,4,5,6,6a,6b,7,8,8a,9,10,11,12,12a,12b,13,14b-octadecahydropicen-4a(2H)-yl)pyrrol-idine-1-carboxamide]?
Answer: Average motility of 4 parasites with 95% CI at 24 hour time point [1]: 2.75 (1.8;3.6); Average motility of 4 parasites with 95% CI at 48 hour time point [1]: 5.00 (5.0;5.0); Average motility of 4 parasites with 95% CI at 72 hour time point [1]: 5.00 (5.0;5.0); Effect on immature fluke motility, in words [1]: paralyzed the assayed immature flukes; CC50 at 24 h [2]: 34.7 µM; Effect on wild strain adult fluke motility, in words [3]: partial paralysis; Average motility of 4 parasites with 95% CI at 72 hour time point [3]: 5.25 (4.7;5.7); Average motility of 25 NEJs with 95% CI, 24 hours ([4]; 24 h, motility score 1 good/normal to 5 no movement): 5.00 (5.0;5.0); Average phenotype of 25 NEJs with 95% CI, 24 hours ([4]; 24 h): 6.00 (6.0;6.0); Average motility of 25 NEJs with 95% CI, 48 hours ([4]; 48 h, motility score 1 good/normal to 5 no movement): 5.00 (5.0;5.0); Average phenotype of 25 NEJs with 95% CI, 48 hours ([4]; 48 h): 6.00 (6.0;6.0); Average motility of 25 NEJs with 95% CI, 72 hours ([4]; 72 h, motility score 1 good/normal to 5 no movement): 5.00 (5.0;5.0); Average phenotype of 25 NEJs with 95% CI, 72 hours ([4]; 72 h): 6.00 (6.0;6.0); Activity against NEJs (first screen), in words [4]: maximal alterations to both phenotype/ultrastructure and motility; Average motility of 3 parasites treated with 4.4 µM, 24 hours [5, 6]: 1.00 (1.0;1.0); Average motility of 3 parasites treated with 4.4 µM, 48 hours [5, 6]: 1.00 (1.0;1.0); Average motility of 3 parasites treated with 4.4 µM, 72 hours ([5]; 4.4 µM, 72 h, adult flukes Italian strain, score 1 to 6): 3.00 (3.0;3.0); Average motility of 3 parasites treated with 13.3 µM, 24 hours [5, 7]: 1.00 (1.0;1.0); Average motility of 3 parasites treated with 13.3 µM, 48 hours [5, 7]: 1.00 (1.0;1.0); Average motility of 3 parasites treated with 13.3 µM, 72 hours [5, 8]: 4.66 (3.3;5.9); Average motility of 3 parasites treated with 40 µM, 24 hours [5, 7]: 3.00 (3.0;3.0); Average motility of 3 parasites treated with 40 µM, 48 hours [5, 7]: 3.66 (3.0;4.3); Average motility of 3 parasites treated with 40 µM, 72 hours [5, 8]: 5.00 (5.0;5.0); Selectivity Index (SI) on Adult Flukes SI=CC50/EC50, 72 hour [5]: 5.72; EC50 ([5]; 72 h): 6.06 µM; Effect on adult fluke (Italian strain) movement, in words [5]: Decreased movement
